Here are results for 2 compounds from patent US20100022475A1, “NOVEL TRIAZOLOPYRIMIDINE DERIVATIVES” (priority 2004, published 2010).

Bounds are passed on as bounds.

One data set deals with Alternaria solani. The experiment in a line: Alternaria solani / tomato / preventive. The class given is in vivo. Conditions: 200 ppm, spray, tomato plants cv. Roter Gnom, assessed 4 days after inoculation.
For another data set, the system named is Botrytis cinerea. The data set is described as follows: Botrytis cinerea / tomato / preventive. It is filed as in vivo. Conditions: 200 ppm, spray, tomato plants cv. Roter Gnom, assessed 3 days after inoculation.
Another data set relates to Puccinia recondita. The experiment in a line: Puccinia recondita / wheat / preventive (brown rust). Conditions: 200 ppm, spray, wheat plants cv. Arina, assessed 11 days after inoculation. It is filed as in vivo.
Data set [1] deals with Magnaporthe grisea (Pyricularia oryzae). It is filed as in vivo. Conditions: 200 ppm, spray, rice plants cv. Koshihikari, preventive, assessed 6 days after inoculation.
Data set [2] relates to Pyrenophora teres (Helminthosporium teres). The data set is described as follows: Pyrenophora teres (Helminthosporium teres) / barley / preventive (net blotch). The class given is in vivo. Conditions: 200 ppm, spray, barley plants cv. Regina, assessed 4 days after inoculation.
The subject of a further data set is Septoria tritici. The experiment in a line: Septoria tritici / wheat / preventive (Septoria leaf spot). Conditions: 200 ppm, spray, wheat plants cv. Riband, assessed 16-18 days after inoculation. It is filed as in vivo.

Compound `C[Si]1(CNc2c(-c3c(F)cc(F)cc3F)c(Cl)nc3ncnn23)CCCC1` [I.d.081, [5-chloro-6-(2,4,6-trifluoro-phenyl)-[1,2,4]triazolo[1,5-a]pyrimidin-7-yl]-(1-methyl-silolan-1-ylmethyl)-amine] had a melting point of 138 to 139 °C. The compound further yielded an inhibits fungal infestation with Alternaria solani of no less than 80%. The compound further gave an inhibits fungal infestation in the data set with Botrytis cinerea of no less than 80%. The compound also yielded an inhibits fungal infestation with Puccinia recondita of no less than 80%. In addition, the inhibits fungal infestation in data set [1] is listed as no less than 80%. Moreover, the inhibits fungal infestation in data set [2] is given as no less than 80%. This compound came in with an inhibits fungal infestation in the data set with Septoria tritici of no less than 80%.
Consider `C[Si]1(CNc2c(-c3c(F)cc(F)cc3F)c(Cl)nc3ncnn23)CCCCC1` [I.o.081, [5-chloro-6-(2,4,6-trifluoro-phenyl)-[1,2,4]triazolo[1,5-a]pyrimidin-7-yl]-(1-methyl-silinan-1-ylmethyl)-amine], for which the melting point fell in the range of 150 to 152 °C.
